Results: patent US20230293535A1, “ERBB/BTK INHIBITORS” (Dizal (Jiangsu) Pharmaceutical Co., Ltd., priority 2018, published 2023)
Counter-ions that a name gives are not always drawn. Like-named read-outs stand apart in the source and are kept apart here.

Experiments:
Format in all cases: cell-based
[1] = target: T1, human EGFR exon 20 H773_V774insNPH (Homo sapiens, UniProt P00533, INS773NPH); experiment: EGFR Exon20 NPH insertion cellular phosphorylation inhibition (MSD pEGFR Y1068/total EGFR); conditions: Ba/F3 EGFR NPH ins cells, 4 h compound, p-EGFR(Y1068)/total EGFR;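 further: IL3-independent Ba/F3 cells with constitutively phosphorylated EGFR, compound exposure at 37 °C under 5% CO2, electrochemiluminescent MSD measurement of the p-EGFR to total EGFR ratio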
T1 construct: host or cells: Ba/F3

[2] = target: T2, human EGFR exon 20 V769_D770insASV (Homo sapiens, UniProt P00533, INS769ASV); experiment: EGFR Exon20 ASV insertion cellular phosphorylation inhibition (MSD pEGFR Y1068/total EGFR); conditions: Ba/F3 EGFR ASV ins cells, 4 h compound, p-EGFR(Y1068)/total EGFR;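 further: electrochemiluminescent readout on an MSD SECTOR Imager, IL3-independent transduced cells in medium with 1% FBS, compound concentration series at 37 °C and 5% CO2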
T2 construct: expressed in transfected cells; host or cells: Ba/F3 (DSMZ ACC-300), lentiviral transduction, puromycin selection, IL3 depletion
Experimental: To generate the EGFR exon 20 V769_D770insASV transduced Ba/F3 cell line, the parental Ba/F3 cells were infected with the recombinant EGFR V769_D770insASV lentivirus and then followed by 1 µg/ml of puromycin selection and IL3 depletion. The resulting cell line expresses constitutively phosphorylated EGFR protein and proliferates in the absence of IL3, which could be used for in vitro PD and anti-proliferation assays.
(§1) One day before the test, WT or mutant cells were seeded in 96 well plates at appropriate concentrations with corresponding growth media supplemented with 1% FBS, and incubated overnight. The next day, tested compounds at a series of concentrations were added into each individual well of the plates, and the plates were incubated for 4 h at 37° C. with 5% CO2.
(§2) The EGFR (Y1068) phosphorylation level (activity) of cells in each well were then measured with MSD kit named “MULTI-SPOT®96 4-Spot HB Prototype EGFR Triplex [sequence]: pEGFR(Tyr1068),pEGFR(Tyr1173), Total EGFR” according to the manufacturer’s instruction (MESO SCALE DISCOVERY, Cat# N45ZB-1). The assay is an electrochemiluminescent method for determining both phosphorylated and total EGFR of cells with an MSD SECTOR® Imager and the ratio of p-EGFR/total EGFR can be generated by the machine. The Her2 (Y1248) phosphorylation level (activity) of cells in each well were measured with MSD Kit named “Phospho-ErbB2 (Tyr1248) Assay Whole Cell Lysate Kit” according to the manufacturer’s instruction (MESO SCALE DISCOVERY, Cat# K151CLD-3). The assay is an electrochemiluminescent method (MESO SCALE DISCOVERY) for determining both phosphorylated and total Her2 of cells with an MSD SECTOR® Imager and then the ratio of p-Her2/total Her2 can be generated by the machine.

EGFR L858R&T790M = target: T3, EGFR L858R&T790M (Homo sapiens, UniProt P00533, L858R/T790M); experiment: EGFR L858R and T790M cellular phosphorylation inhibition in NCI-H1975 (MSD); conditions: NCI-H1975 cells, 4 h compound, p-EGFR(Y1068)/total EGFR; read-out: EGFR L858R and T790M mutation IC50;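 further: phosphorylated and total EGFR detected by electrochemiluminescence, cells exposed to compound in medium containing 1% FBS at 37 °C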
T3 construct: host or cells: NCI-H1975
Experimental: as §1, §2

[3] = target: T4, human Her2 exon 20 insertion mutation YVMA (Homo sapiens, UniProt P04626, INS775YVMA); experiment: Her2 Exon 20 YVMA insertion cellular phosphorylation inhibition (MSD p-Her2 Y1248/total Her2); conditions: Her2 YVMAins cells, 4 h compound;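 further: lentivirally transduced NIH-3T3 cells in 1% FBS medium, electrochemiluminescent MSD read-out, graded compound concentrations at 37 °C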
T4 construct: expressed in transfected cells; host or cells: NIH-3T3, lentiviral transduction, puromycin selection

WT EGFR = target: T5, WT EGFR (Homo sapiens, UniProt P00533); experiment: WT EGFR cellular phosphorylation inhibition in A-431 (hEGF stimulated, MSD); conditions: A431 cells, 4 h compound, then 100 ng/ml hEGF 10 min;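 further: electrochemiluminescence read-out of EGFR Tyr1068 phosphorylation expressed as ratio to total EGFR, cells kept in medium with 1% FBS, compounds tested as a concentration series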
T5 construct: host or cells: A-431

Ba/F3 EGFR NPH ins cells = experiment: Cell proliferation, Ba/F3 EGFR NPH ins (CellTiter-Glo, 72 h); conditions: Ba/F3 EGFR, 72 h;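 further: IL3-independent cells carrying constitutively phosphorylated EGFR, compound dilution series, viable cells quantified by ATP luminescence, growth relative to DMSO wells after subtracting pre-dosing (day 0) baseline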
Ba/F3 EGFR ASV ins cells = experiment: Cell proliferation, Ba/F3 EGFR ASV ins (CellTiter-Glo, 72 h); conditions: Ba/F3 EGFR, 72 h;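 further: IL3-independent Ba/F3 cells transduced with EGFR V769_D770insASV, cellular ATP luminescence after compound exposure, growth relative to DMSO control with the day-0 baseline reading subtracted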
[4] = system: NCI-H1975 EGFR L858R/T790M cells; experiment: Cell proliferation, NCI-H1975 EGFR L858R/T790M (CellTiter-Glo, 72 h); conditions: Homo sapiens, NCI-H1975, 72 h;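 further: viable cells quantified by luciferase-based ATP luminescence, proliferation expressed relative to DMSO-treated wells (100%) after subtracting a parallel plate read at the time of dosing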
[5] = system: Her2 exon 20 insertion YVMA transduced NIH-3T3 cell line; experiment: Cell proliferation, Her2 YVMAins NIH-3T3 (CellTiter-Glo, 72 h); conditions: Mus musculus, NIH3T3, 72 h, Her2 YVMAins cells, 72 h proliferation; read-out: Her2 Exon 20 YVMA insertion GI50;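 further: viable cells quantified by ATP luminescence, growth over a day-zero baseline plate expressed as percent of DMSO control growth, compound dilution series in 10% FBS medium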
WT EGFR cell line A-431 = experiment: Cell proliferation, WT EGFR A431 (CellTiter-Glo, 72 h); conditions: Homo sapiens, A-431, 72 h;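 further: proliferation from a luminescent ATP viability signal, expressed as 100 × (treated minus time-zero plate) over (DMSO control minus time-zero plate), cells grown with 10% FBS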
OCI-LY-10 cells = experiment: BTK (wt) cell proliferation, OCI-LY-10 (CellTiter-Glo, 72 h); conditions: Homo sapiens, OCI-Ly10, 72 h, OCI-LY-10 cells, 72 h, CellTiter-Glo; read-out: BTK WT OCI-LY-10 GI50;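 further: viable cells quantified via cellular ATP luminescence, proliferation given as percent of DMSO control after subtracting a duplicate plate read at time of dosing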
Experimental: OCI-LY-10 at 3,750 cells/well, TMD-8 and Ri-1 at 2,000 cells/well, and DB at 1,250 cells/well, respectively, were sorted into 384-well plates in RPMI1640 medium with 10% FBS. After overnight incubation, all cells were incubated with compound at a series of concentrations. Meanwhile, a duplicated plate of each cell line was prepared for measuring G0 value. The dosed plates were further incubated for 72 hours and the number of viable cells was measured by CellTiter-Glo® Luminescent Cell Viability Assay (Promega), a luminescent method for determining the number of viable cells through measurement of cellular ATP concentration using Envision plate reader (PerkinElmer). The percentage of proliferation was calculated as: % Proliferation = 100 × (G3 value of sample well - G0 value)/(G3 value of DMSO control - G0 value).

TMD-8 cells = experiment: BTK (wt) cell proliferation, TMD-8 (CellTiter-Glo, 72 h); conditions: Homo sapiens, TMD8, 72 h, TMD-8 cells, 72 h, CellTiter-Glo; read-out: BTK WT TMD-8 GI50;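 further: viable cells quantified by ATP-based luminescence, proliferation expressed as percent of DMSO control after subtracting a time-zero baseline plate read at dosing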
Ri-1 cells = experiment: BTK (wt) cell proliferation, Ri-1 (CellTiter-Glo, 72 h); conditions: Ri-1, 72 h, Ri-1 cells, 72 h, CellTiter-Glo; read-out: BTK WT Ri-1 GI50;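 further: viable cells quantified as cellular ATP luminescence, proliferation normalized to a time-zero plate and the DMSO control, compounds tested across a dilution series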
DB cells = experiment: BTK (wt) cell proliferation, DB (CellTiter-Glo, 72 h); conditions: Homo sapiens, DB, DB cells, CellTiter-Glo, read-out: Non-BCR activated DB GI50;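 further: DB cells in 384-well plates given a dilution series of compound, viable cells read by ATP luminescence, growth expressed versus DMSO control after subtracting a time-zero plate reading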
[6] = read-out: EGFR Exon20 NPH insertion GI50 (nM)
[7] = read-out: EGFR Exon20 ASV insertion GI50 (nM)
[8] = read-out: EGFR L858R and T790M mutation GI50 (nM)
[9] = read-out: EGFR WT A431 GI50 (nM)
[10] = Ba/F3 EGFR NPH ins, 72 h proliferation, read-out: EGFR Exon20 NPH insertion GI50
[11] = Ba/F3 EGFR ASV ins, 72 h proliferation, read-out: EGFR Exon20 ASV insertion GI50
[12] = NCI-H1975, 72 h proliferation, read-out: EGFR L858R and T790M mutation GI50
[13] = A431, 72 h proliferation, read-out: EGFR WT A431 GI50

T3 sequence (P00533 25-1210 T790M/L858R): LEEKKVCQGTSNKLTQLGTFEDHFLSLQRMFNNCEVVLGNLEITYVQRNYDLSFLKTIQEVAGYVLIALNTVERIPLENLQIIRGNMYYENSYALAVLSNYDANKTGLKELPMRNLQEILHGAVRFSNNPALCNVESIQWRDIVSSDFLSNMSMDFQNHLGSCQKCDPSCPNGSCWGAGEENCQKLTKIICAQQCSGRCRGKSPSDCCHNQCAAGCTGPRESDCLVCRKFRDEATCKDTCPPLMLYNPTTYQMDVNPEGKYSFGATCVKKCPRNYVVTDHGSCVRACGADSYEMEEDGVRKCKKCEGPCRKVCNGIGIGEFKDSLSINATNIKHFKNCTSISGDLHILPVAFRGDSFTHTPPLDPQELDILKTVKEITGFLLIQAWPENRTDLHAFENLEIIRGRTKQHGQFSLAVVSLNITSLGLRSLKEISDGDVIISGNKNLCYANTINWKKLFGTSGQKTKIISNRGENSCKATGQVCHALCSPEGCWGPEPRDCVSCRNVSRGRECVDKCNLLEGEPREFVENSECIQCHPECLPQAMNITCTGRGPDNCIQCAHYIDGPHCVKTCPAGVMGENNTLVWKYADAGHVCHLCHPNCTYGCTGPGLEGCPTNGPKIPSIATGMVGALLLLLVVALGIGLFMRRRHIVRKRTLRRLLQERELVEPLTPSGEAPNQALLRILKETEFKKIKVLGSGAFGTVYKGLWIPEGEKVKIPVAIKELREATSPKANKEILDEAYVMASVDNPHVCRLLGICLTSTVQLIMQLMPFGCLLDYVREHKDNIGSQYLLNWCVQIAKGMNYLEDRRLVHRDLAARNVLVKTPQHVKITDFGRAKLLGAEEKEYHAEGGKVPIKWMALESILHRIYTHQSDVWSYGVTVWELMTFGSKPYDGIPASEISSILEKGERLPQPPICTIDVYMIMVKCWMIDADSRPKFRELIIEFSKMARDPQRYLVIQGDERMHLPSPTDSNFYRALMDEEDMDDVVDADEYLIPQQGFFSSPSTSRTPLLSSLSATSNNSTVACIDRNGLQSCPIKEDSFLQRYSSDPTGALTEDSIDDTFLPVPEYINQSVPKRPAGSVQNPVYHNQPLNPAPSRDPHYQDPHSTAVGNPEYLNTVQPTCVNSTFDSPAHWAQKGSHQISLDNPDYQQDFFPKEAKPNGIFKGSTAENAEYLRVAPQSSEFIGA
T4 sequence (P04626 with tags, fused parts or gaps INS775YVMA): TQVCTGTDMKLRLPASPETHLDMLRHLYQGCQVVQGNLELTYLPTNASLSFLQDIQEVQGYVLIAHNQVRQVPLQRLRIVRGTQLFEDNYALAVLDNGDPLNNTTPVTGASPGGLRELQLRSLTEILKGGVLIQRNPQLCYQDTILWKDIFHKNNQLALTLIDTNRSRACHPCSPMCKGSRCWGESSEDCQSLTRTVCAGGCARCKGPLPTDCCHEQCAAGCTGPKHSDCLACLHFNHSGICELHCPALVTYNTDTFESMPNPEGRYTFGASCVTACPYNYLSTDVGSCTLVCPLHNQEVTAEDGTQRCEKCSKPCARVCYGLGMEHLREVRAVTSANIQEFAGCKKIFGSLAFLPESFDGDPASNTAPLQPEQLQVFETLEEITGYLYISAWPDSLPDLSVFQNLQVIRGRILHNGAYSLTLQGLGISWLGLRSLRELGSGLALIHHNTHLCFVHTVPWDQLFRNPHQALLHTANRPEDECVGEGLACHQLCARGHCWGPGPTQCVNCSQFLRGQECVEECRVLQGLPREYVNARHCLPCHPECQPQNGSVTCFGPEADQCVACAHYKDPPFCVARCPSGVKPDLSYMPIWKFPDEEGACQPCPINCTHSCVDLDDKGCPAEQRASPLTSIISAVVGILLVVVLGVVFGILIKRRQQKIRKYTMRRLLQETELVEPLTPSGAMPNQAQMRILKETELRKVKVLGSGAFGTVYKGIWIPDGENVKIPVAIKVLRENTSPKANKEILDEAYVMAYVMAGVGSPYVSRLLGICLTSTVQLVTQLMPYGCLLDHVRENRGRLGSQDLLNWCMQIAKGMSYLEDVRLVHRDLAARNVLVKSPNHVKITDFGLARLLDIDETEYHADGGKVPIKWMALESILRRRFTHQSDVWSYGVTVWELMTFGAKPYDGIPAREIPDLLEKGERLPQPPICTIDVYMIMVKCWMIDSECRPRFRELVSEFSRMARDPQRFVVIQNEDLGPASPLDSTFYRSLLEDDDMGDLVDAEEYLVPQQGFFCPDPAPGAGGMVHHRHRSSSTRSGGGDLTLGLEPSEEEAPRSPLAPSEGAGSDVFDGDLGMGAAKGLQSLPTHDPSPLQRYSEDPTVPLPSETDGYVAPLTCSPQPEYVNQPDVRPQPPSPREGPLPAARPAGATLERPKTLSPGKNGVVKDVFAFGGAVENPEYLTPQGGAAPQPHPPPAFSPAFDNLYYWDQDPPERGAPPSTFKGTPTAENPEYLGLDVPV
T2 sequence (P00533 with tags, fused parts or gaps INS769ASV): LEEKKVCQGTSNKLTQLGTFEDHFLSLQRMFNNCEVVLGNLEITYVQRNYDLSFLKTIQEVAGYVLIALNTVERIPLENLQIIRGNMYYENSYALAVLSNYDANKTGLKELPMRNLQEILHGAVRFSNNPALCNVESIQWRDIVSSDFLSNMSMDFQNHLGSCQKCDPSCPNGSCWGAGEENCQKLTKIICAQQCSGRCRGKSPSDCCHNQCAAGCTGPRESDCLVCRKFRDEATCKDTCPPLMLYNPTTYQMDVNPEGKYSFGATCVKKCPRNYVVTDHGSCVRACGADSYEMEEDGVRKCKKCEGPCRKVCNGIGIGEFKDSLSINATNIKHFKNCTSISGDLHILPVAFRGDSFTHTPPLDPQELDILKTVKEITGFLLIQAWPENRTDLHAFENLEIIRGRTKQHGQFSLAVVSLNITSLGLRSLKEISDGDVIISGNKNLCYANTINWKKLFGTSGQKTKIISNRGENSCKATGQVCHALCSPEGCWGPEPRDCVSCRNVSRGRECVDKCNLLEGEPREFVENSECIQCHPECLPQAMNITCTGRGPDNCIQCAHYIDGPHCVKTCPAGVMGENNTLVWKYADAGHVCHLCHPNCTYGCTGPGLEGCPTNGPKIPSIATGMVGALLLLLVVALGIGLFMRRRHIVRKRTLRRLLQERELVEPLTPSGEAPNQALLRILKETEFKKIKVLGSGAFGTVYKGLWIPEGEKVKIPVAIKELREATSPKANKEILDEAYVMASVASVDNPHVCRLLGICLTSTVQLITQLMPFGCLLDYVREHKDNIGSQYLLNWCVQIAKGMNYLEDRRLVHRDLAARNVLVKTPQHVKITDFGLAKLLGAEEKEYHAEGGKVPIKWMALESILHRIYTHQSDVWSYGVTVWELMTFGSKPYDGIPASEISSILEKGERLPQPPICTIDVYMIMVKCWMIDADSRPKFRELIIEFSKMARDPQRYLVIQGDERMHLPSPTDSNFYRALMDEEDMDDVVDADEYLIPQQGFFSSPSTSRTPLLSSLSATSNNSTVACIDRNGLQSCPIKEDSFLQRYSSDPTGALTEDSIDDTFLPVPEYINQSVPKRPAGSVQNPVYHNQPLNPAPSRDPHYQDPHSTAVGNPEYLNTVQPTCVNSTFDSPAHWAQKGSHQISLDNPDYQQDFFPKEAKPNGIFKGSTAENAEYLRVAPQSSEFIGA
T1 sequence (P00533 with tags, fused parts or gaps INS773NPH): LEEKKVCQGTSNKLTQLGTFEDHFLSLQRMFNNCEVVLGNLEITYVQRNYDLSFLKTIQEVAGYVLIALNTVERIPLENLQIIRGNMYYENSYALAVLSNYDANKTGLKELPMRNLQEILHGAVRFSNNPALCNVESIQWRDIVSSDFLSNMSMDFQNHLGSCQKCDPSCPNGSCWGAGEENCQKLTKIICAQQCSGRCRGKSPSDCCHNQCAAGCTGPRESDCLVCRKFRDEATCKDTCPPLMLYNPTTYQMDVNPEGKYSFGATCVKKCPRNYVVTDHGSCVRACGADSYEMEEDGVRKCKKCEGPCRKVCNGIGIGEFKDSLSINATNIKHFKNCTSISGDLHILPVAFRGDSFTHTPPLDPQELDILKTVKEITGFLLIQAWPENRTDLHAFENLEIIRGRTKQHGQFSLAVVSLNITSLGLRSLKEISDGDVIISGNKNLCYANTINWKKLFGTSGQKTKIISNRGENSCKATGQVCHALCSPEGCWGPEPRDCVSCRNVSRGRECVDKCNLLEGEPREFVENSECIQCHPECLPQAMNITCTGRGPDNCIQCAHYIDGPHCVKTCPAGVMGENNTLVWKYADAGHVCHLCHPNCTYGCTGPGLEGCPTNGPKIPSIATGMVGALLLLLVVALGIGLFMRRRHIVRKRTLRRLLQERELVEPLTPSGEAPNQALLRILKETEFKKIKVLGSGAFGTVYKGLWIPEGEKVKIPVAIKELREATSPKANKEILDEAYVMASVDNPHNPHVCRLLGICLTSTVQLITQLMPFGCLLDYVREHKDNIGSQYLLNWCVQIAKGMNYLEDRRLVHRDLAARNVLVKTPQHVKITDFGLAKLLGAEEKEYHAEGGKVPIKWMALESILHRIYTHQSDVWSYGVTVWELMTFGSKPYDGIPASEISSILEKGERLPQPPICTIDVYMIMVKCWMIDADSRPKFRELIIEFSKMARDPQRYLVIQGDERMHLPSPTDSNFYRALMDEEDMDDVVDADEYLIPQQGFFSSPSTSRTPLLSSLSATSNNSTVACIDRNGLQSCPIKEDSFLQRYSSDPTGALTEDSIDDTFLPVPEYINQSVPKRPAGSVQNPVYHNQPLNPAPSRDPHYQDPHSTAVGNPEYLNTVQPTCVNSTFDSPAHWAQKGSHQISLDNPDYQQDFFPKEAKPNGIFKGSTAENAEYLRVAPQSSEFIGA

Row | SMILES | IC50 [1] [nM] | IC50 [2] [nM] | IC50 (EGFR L858R&T790M) [nM] | IC50 [3] [nM] | IC50 (WT EGFR) [nM] | GI50 (Ba/F3 EGFR NPH ins cells; [6]) [nM] | GI50 (Ba/F3 EGFR ASV ins cells; [7]) [nM] | GI50 [4, 8] [nM] | GI50 [5] [nM] | GI50 (WT EGFR cell line A-431; [9]) [nM] | GI50 (OCI-LY-10 cells) [nM] | GI50 (TMD-8 cells) [nM] | GI50 (Ri-1 cells) [nM] | GI50 (DB cells) [nM] | GI50 (Ba/F3 EGFR NPH ins cells; [10]) [nM] | GI50 (Ba/F3 EGFR ASV ins cells; [11]) [nM] | GI50 [4, 12] [nM] | GI50 (WT EGFR cell line A-431; [13]) [nM]
1 | C=CC(=O)Nc1cc(Nc2ncnc(Nc3cc(Cl)c(F)cc3C3(O)CCC3)n2)c(OC)cc1N(C)CCN(C)C [Compound 72, N-(5-(4-(5-chloro-4-fluoro-2-(1-hydroxycyclobutyl)phenylamino)-1,3,5-triazin-2-ylamino)-2-((2-(dimethylamino)ethyl)(methyl)amino)-4-methoxyphenyl)acrylamide formic acid salt] | 18.7 | 8 | 0.6 | 8.9 | 26.2 | 46.1 | 42.3 | 4.1 | 38.9 | 10.4 | 2.9 | 7.3 | 33.3 | > 3000 | – | – | – | –
2 | C=CC(=O)Nc1cc(Nc2nccc(Nc3cc(Cl)c(F)cc3C(C)(C)O)n2)c(OC)cc1N1C[C@H](F)C[C@@H]1CN(C)C [Compound 88, N-(5-(4-(5-chloro-4-fluoro-2-(2-hydroxypropan-2-yl)phenylamino)pyrimidin-2-ylamino)-2-((2R,4R)-2-((dimethylamino)methyl)-4-fluoropyrrolidin-1-yl)-4-methoxyphenyl) acrylamide formic acid salt] | 10.1 | 7.5 | 0.5 | 4.5 | 27.8 | 18.8 | 14 | 1.8 | 31.2 | 6.9 | 1.57 | 6.49 | 12 | > 3000 | – | – | – | –
3 | C=CC(=O)Nc1cc(Nc2ncnc(Nc3cc(F)c(F)cc3C(C)(O)CC)n2)c(OC)cc1N1CC[C@@H]1CN(C)C (stereo partly drawn) [Compound 55, N-(5-(4-(4,5-difluoro-2-(2-hydroxybutan-2-yl)phenylamino)-1,3,5-triazin-2-ylamino)-2-((R)-2-((dimethylamino)methyl)azetidin-1-yl)-4-methoxyphenyl)acrylamide] | 20.1 | 9.8 | 0.8 | 8.4 | 30.9 | – | – | – | 88.9 | – | 6.68 | 11.5 | 12 | > 3000 | 62.6 | 44.1 | 3.8 | 14.6
4 | C=CC(=O)Nc1cc(Nc2ncnc(Nc3cc(F)c(Cl)cc3C(C)(C)O)n2)c(OC)cc1N1CCC[C@@H]1CN(C)C [Compound 43, (R)-N-(5-(4-(4-chloro-5-fluoro-2-(2-hydroxypropan-2-yl)phenylamino)-1,3,5-triazin-2-ylamino)-2-(2-((dimethylamino)methyl)pyrrolidin-1-yl)-4-methoxyphenyl)acrylamid] | 3.9 | 5.9 | 0.3 | 2.9 | 8.1 | – | – | – | 27.6 | – | 7.6 | 13.6 | 28.5 | > 3000 | 17.4 | 9.3 | 1.2 | 4.3
5 | C=CC(=O)Nc1cc(Nc2nccc(Nc3cc(Cl)c(F)cc3C(C)(C)O)n2)c(OC)cc1N1CC[C@H](N(C)C)C1 [Compound 87, (S)-N-(5-(4-(5-chloro-4-fluoro-2-(2-hydroxypropan-2-yl)phenylamino)pyrimidin-2-ylamino)-2-(3-(dimethylamino)pyrrolidin-1-yl)-4-methoxyphenyl)a crylamide] | 51.2 | 51.9 | 1 | 21.2 | 362 | – | – | – | 827 | – | 22.3 | 13.7 | 48 | 1210 | 140 | 156 | 24.4 | 84.8
6 | C=CC(=O)Nc1cc(Nc2ncc(Cl)c(Nc3cc(Cl)c(F)cc3C(C)(C)O)n2)c(OC)cc1N1CC[C@@H](N(C)C)C1 [Compound 74, (R)-N-(5-(5-chloro-4-(5-chloro-4-fluoro-2-(2-hydroxypropan-2-yl)phenylamino)pyrimidin-2-ylamino)-2-(3-(dimethylamino)pyrrolidin-1-yl)-4-methoxyphenyl) acrylamide] | 65.1 | 34.4 | 0.4 | 52.6 | 133 | – | – | – | 155 | – | 3.9 | 9.1 | 82 | > 3000 | 76.8 | 86.6 | 6 | 43
7 | C=CC(=O)Nc1cc(Nc2ncnc(Nc3cc(F)c(Cl)c(F)c3C(C)(C)O)n2)c(OC)cc1N(C)CCN(C)C [Compound 16, N-(5-(4-(4-chloro-3,5-difluoro-2-(2-hydroxypropan-2-yl)phenylamino)-1,3,5-triazin-2-ylamino)-2-((2-(dimethylamino)ethyl)(methyl)amino)-4-methoxyphenyl)acrylamide] | 36 | 35.1 | 0.9 | 16.5 | 47.6 | – | – | – | 73.4 | – | 250 | 118 | 334 | > 3000 | 81.3 | 114 | 33.4 | 52.6
8 | C=CC(=O)Nc1cc(Nc2ncnc(Nc3cc(F)c(F)cc3C(C)(C)O)n2)c(OC)cc1N1CC[C@@H]1CN(C)C [Compound 19, (R)-N-(5-(4-(4,5-difluoro-2-(2-hydroxypropan-2-yl)phenylamino)-1,3,5-triazin-2-ylamino)-2-(2-((dimethylamino)methyl)azetidin-1-yl)-4-methoxyphenyl)acrylamide] | 46.5 | 29.7 | 0.9 | 21.3 | 29.7 | – | – | – | 163 | – | 10.8 | 13 | 133 | > 3000 | 80 | 80.9 | 9.5 | 23.1
9 | C=CC(=O)Nc1cc(Nc2ncnc(Nc3cc(Cl)c(F)cc3C(C)(C)O)n2)c(OC)cc1N(C)C[C@H]1CCCN1C [Compound 30, (R)-N-(5-(4-(5-chloro-4-fluoro-2-(2-hydroxypropan-2-yl)phenylamino)-1,3,5-triazin-2-ylamino)-4-methoxy-2-(methyl((1-methylpyrrolidin-2-yl)methyl)amino)phenyl) acrylamide] | 11.1 | 5.7 | 0.5 | 5.5 | 13.2 | – | – | – | 47.5 | – | 13.1 | 17.8 | 28.6 | > 3000 | 19.3 | 25.9 | 3.7 | 12.4
10 | C=CC(=O)Nc1cc(Nc2ncnc(Nc3cc(F)c(Cl)cc3C(C)(C)O)n2)c(OC)cc1N1CC[C@@H]1CN(C)C [Compound 62, (R)-N-(5-(4-(4-chloro-5-fluoro-2-(2-hydroxypropan-2-yl)phenylamino)-1,3,5-triazin-2-ylamino)-2-(2-((dimethylamino)methyl)azetidin-1-yl)-4-methoxyphenyl)acrylamide] | 19.3 | 10.7 | 0.5 | 11.4 | 27.4 | – | – | – | 114 | – | 5.3 | 3.79 | 84 | > 3000 | 45.8 | 34.8 | 3.2 | 13.3
